From patent US20250099427A1, “Drug and Method of Treating or Preventing Renal Disease Using Drug” (Showa University, priority 2018, published 2025)

Tested on: Acute Renal Failure Animal Model
Assay: Acute renal failure animal model, pathological tissue specimen (HE staining) lesion scores
Type: in vivo, mouse
Conditions: 10 mg/kg
Experimental: 24 hours after the ischemia and reperfusion processes, urine was collected for 24 hours using a metabolic cage, measurement of body weight was conducted, and blood was collected. Thereafter, nephrectomy was conducted, and formalin-fixed kidney was permeated with paraffin using an automatic embedding device to produce a paraffin block. The paraffin block was sliced into 3 μm sections with a microtome, and placed on a slide glass. Then, the sections were stretched with a paraffin stretcher at 52° C., and sufficiently dried overnight in a paraffin melter at 37° C. After deparaffinization and washing with water, the sections were stained with a Mayer's hematoxylin staining solution for 1 minute and washed with running water for 15 minutes. Thereafter, the sections were stained with an eosin staining solution for 45 seconds, and dehydrated with 80% to 100% ethanol, followed by clearing with xylene and sealing with marinol. Each specimen was examined microscopically at a magnification of 50 using an optical microscope. With respect to tubular dilatation, tubular necrosis, and tubular casts in the cortex, outer zone of outer medulla, and inner zone of outer medulla, the percentage of lesions in each site was evaluated according to the following criteria.
In Table 12, the experimental results are expressed in mean±standard error in eight mice in each group. For comparison among multiple groups, firstly, one-way analysis of variance (ANOVA) was conducted, and then a Bonferroni test was conducted, if significant difference was recognized. Significant difference was recognized with a significance level of less than 5% (P<0.05).

[1] = points 0 (no lesion) to 4 (severe, 50% or more), mean±SE, 8 mice

## CC(C)=CCC/C(C)=C/CC[C@@]1(C)Oc2c(c(O)cc3c2CN(CCC[C@@H](C(=O)O)N2Cc4c(cc(O)c5c4O[C@](C)(CC/C=C(\C)CCC=C(C)C)[C@@H](O)C5)C2=O)C3=O)C[C@@H]1O [SMTP-7]
Compared to control group
  Histopathological changes (lesion changes), result in words: lesion changes other than the lesion change in tubular casts in the renal cortex were significantly improved
[1]
  Tubular cast score, Cortex: 0.9 ± 0.1
  Tubular cast score, Inner zone of outer medulla: 1.0 ± 0.2
  Tubular cast score, Outer zone of outer medulla: 0.9 ± 0.1
  Tubular dilatation score, Cortex: 2.0 ± 0.3
  Tubular dilatation score, Inner zone of outer medulla: 1.0 ± 0.2
  Tubular dilatation score, Outer zone of outer medulla: 1.4 ± 0.4
  Tubular necrosis score, Cortex: 0.4 ± 0.2
  Tubular necrosis score, Inner zone of outer medulla: 0.5 ± 0.2
  Tubular necrosis score, Outer zone of outer medulla: 0.4 ± 0.2
